Experimental data: patent US7795252B2, “Rapamycin analogues and the uses thereof in the treatment of neurological, proliferative, and inflammatory disorders” (Pfizer Inc., priority 2004, dated 2010)
Like-named read-outs stand apart in the source and are kept apart here.

How the values were obtained:
[1] = tested on: Dissociated cortical neuron cultures; experiment: cortical neuron assay (neurite outgrowth); assay type: cell-based; settings: Cortical neurone, rat E15 cortical neurons, compound for 72 hours, read-out: EC50 in cortical neuron assays
Experimental: Dissociated cortical neuron cultures were prepared as previously described (Pong et al., 2001). Briefly, embryonic day 15 rat fetuses were collected and dissected in ice-cold PBS. Dissected cortices were pooled together and transferred to an enzymatic dissociation medium containing papain. After 30 minutes, the tissue was mechanically triturated with a fire-polished glass Pasteur pipette. Single-cell suspensions in complete media were seeded on poly-L-ornithine and laminin coated 96-well plates. After 24 hours, cultures were treated with various concentrations of compound for 72 hours. The cultures were then fixed and stained with an anti-tubulin primary antibody (TUJ-1) and a fluorescent-tagged secondary antibody. Neurite outgrowth was determined by using the Enhanced Neurite Outgrowth (ENO) algorithm with the Cellomics ArrayScan and expressed as average neurite length or total neurite length per cell.

[2] = tested on: Mesencephalic dopaminergic neuron cultures; experiment: dopaminergic (3H-dopamine) uptake assay after MPP+ exposure; assay type: cell-based; settings: rat E15 mesencephalic dopaminergic neurons, read-out: EC50 in dopaminergic uptake assays
Experimental: Mesencephalic dopaminergic neuron cultures were prepared as described in Pong et al., J. Neurochem. 69: 986-994, 1997, which is incorporated herein by reference in its entirety. Embryonic day 15 (E15) rat fetuses were collected and dissected in ice-cold phosphate-buffered saline (PBS). The ventral piece of tissue compromising the mesencephalic dopaminergic region was dissected out. Dissected pieces of tissue were pooled together and transferred to an enzymatic dissociation medium containing 20 IU/mL papain in Earle's balanced salt solution (Worthington Biochemical, Freehold, N.J., USA) and incubated for 60 minutes at 37° C. After enzymatic dissociation, the papain solution was aspirated and the tissue mechanically triturated with a fire-polished glass Pasteur pipette in complete medium (equal volumes of minimum essential medium (MEM) and F-12 nutrient mixture (GibcoBRL) supplemented with 0.1 mg/mL apotransferrin and 2.5 μg/mL insulin) containing 2,000 IU/mL DNase and 10 mg/mL ovomucoid protease inhibitor.
For dopamine uptake experiments, single-cell suspensions in complete media were seeded on poly-L-ornithine and laminin coated 24-well plates. The cultures were maintained for seven days prior to experimentation. Cultures were pretreated with various concentrations of the compound for 24 hours, then exposed to 10 mM MPP+ for 1 hour. Following the 1 hour incubation, media was exchanged three times and fresh compound was added for an additional 48 hours.
After 48 hours growth of mesencephalic dopaminergic neuron cultures following MPP+ exposure, high-affinity 3H-dopamine uptake was performed using a modified method described by Prochiantz et al., Nature 293: 570-572, 1981, which is incorporated herein by reference. Cultures were washed with pre-warmed PBS containing 5.6 mM glucose and 1 mM ascorbic acid. Cultures were then incubated for 15 minutes at 37° C. with 50 nM 3H-dopamine (31 Ci/mmol, DuPont-NEN, Wilmington, Del., USA). The cultures were washed twice with buffer and lysed with 0.5 N NaOH. The lysate was transferred to a scintillation vial containing Ultima Gold scintillation cocktail and radioactivity was determined with a liquid scintillation counter. Alternatively, culture lysates can be washed twice with buffer, incubated for 2 hours at room temperature with Optiphase Supermix scintillation cocktail (Wallac Scintillation Products, Gaithersburg, Md., USA), and radioactivity measured with a liquid scintillation counter.

rats following pMCAO = experiment: Permanent occlusion of middle cerebral artery (pMCAO), behavioral deficit scoring; assay type: in vivo, rat; settings: I.V. administration (10 mg/kg) following pMCAO
Experimental: Adult male Wistar rats (Charles River, Wilmington, Mass.) 270-300 g were anesthetized with 3% isoflurane in 70% nitrous oxide and 30% oxygen through a nose cone. Temperature was maintained at 37° C. throughout the surgery using a heating lamp. Permanent occlusion of MCAO was induced by electro cauterization of the distal portion of the MCA (via a craniotomy) with a 90 min ligation of both carotid arteries to interrupt collateral circulation (Chen S T, Hsu C Y, Hogan E L, Maricq H Balentine J D (1986) A model of focal ischemic stroke in the rat: reproducible extensive cortical infarction. Stroke 17:738-743). Compound was administered 10 mg/kg i.v. 1.5, 5.5, 24, 48, and 72 hours post ischemia. Rats were kept for 21 day for long-term functional recovery evaluation. […] Rats extending both forelimbs toward the table were scored as 0, flexing contralateral limb toward the body and/or rotating the contralateral shoulder and limb medially were scored as 1, and rolling up the body toward the contralateral side and attempting to grasp the tail were scored as 2. […] Rats retracting hind limb back on bench top immediately were scored as 0, delaying (>2 seconds) were scored as 1, and unable to retract hind limb were score as 2. […]

[3] = tested on: Spinal cord neuron cultures; experiment: spinal cord neuron assay; assay type: cell-based; settings: rat E15 spinal cord neurons, compound for 72 h, read-out: EC50 in spinal cord neuron assays
Experimental: Spinal cord neuron cultures were prepared from embryonic day 15 (E15) rat embryos (Sprague-Dawley, Charles River Laboratories, Wilmington, Mass.). The embryos were collected and their spinal cords were removed in ice-cold phosphate-buffered saline (PBS) without Ca^2+ and Mg^2+. Dissected pieces of spinal cord tissue were pooled together and transferred to an enzymatic dissociation media containing 20 IU/mL papain in Earle's balanced salt solution (Worthington Biochemical, Freehold, N.J.) and incubated for 30 minutes at 37° C. After enzymatic dissociation, the papain solution was aspirated and the tissue mechanically triturated with a fire-polished Pasteur pipette in complete media [Neurobasal Medium with B-27 supplement (Gibco, Grand Island, N.Y.), 100 IU/mL penicillin, 100 μg/mL streptomycin, 3.3 μg/mL aphidicolin, 0.5 mM glutamate] containing 2,000 IU/mL DNase and 10-mg/mL ovomucoid protease inhibitor. Single-cell suspensions in complete media were plated on pre-coated poly-L-ornithine/laminin 96-well plates (Becton-Dickinson, Bedford, Mass.) at a density of 1.0×10^4 cells/well. Spinal cord neurons were maintained for 24 h then exposed to vehicle or various concentrations of compound for 72 h.

human CD4+ T cells [4] = experiment: PMA/ionomycin activation assay; assay type: cell-based; settings: CD4+ T cells stimulated with PMA and ionomycin, tritiated thymidine incorporation, read-out: EC50, inhibition of proliferation
Experimental: (§1) In the following assays, human CD4+ T cells were purified by negative selection from peripheral blood lymphocytes using RosetteSep as per manufacture's instructions (StemCell Technologies, Inc. Vancouver, British Columbia).
Proliferation of the compounds was determined using this assay. CD4+ T cells (5×10^5 cells/well) were plated in flat bottomed 96 well microtiter plates in RPMI, 10% fetal calf serum, 2 mM glutamine media and stimulated with PMA (10 ng/mL) and ionomycin (200 ng/mL) in the presence of increasing concentration of compound. Seventy-two hours after activation, 100 μL of culture media was collected for IL-2 determination, an additional 100 μL fresh media was added to each well and cultures labeled with tritiated thymidine (1 μCi/well) for 6 hours. Cultures were harvested and tritiated thymidine incorporation (count per minute, CPM) assessed using a Trilux (Perkin Elmer, Shelton, Conn.). IL-2 production was determined using an ELISA as per manufacture's instructions (R&D Systems, Minneapolis, Minn.).

human CD4+ T cells [5] = experiment: Anti-CD3/-CD28 stimulation and IL-2 re-stimulation assay; assay type: cell-based
Experimental: as §1
Tosyl-activated magnetic microspheres (Dynal, Great Neck, N.Y.) were coated with anti-CD3 Ab (1 μg/10^7 microspheres), and anti-CD28Ab (0.5 μg/10^7 microspheres) as described in Blair et al. J. Immunol., 160:12, 1998. Murine IgG was used to saturate the binding capacity of the microspheres (total protein=5 μg/10^7 microspheres). Protein-coated microspheres were added to purified CD4+ T cells (2×10^6 cells/mL, ratio 1 bead: 1 cell) and activated for 72 hours in RPMI, 10% fetal calf serum, 2 mM glutamine media. Cells were harvested, washed, and cultured overnight in fresh media and re-stimulated with IL-2 as described in Bennett et al., J. Immunol. 170:711, 2003. Briefly, overnight rested cells were recounted, plated (10^5 cells/well) in flat-bottomed 96 well microtiter plates and stimulated with 1 ng/mL human IL-2 (R&D Systems, Minneapolis, Minn.) in the presence of increasing concentrations of compound. Seventy-two hours after culture re-stimulation, plates were pulsed with 1 μCi/well tritiated thymidine and incubated for a 6-16 hour period.

Compound	EC50 ([2]; Neuron)	EC50 [3]	EC50 [1]	other results
CO[C@H]1C[C@@H]2CC[C@@H](C)[C@@](O)(O2)C(=O)C(=O)N2CCCC[C@H]2C(=O)O[C@H]([C@H](C)C[C@@H]2CC[C@@H](O)[C@H](OC)C2)CC(=O)[C@H](C)/C=C(\C)[C@@H](O)[C@@H](OC)C(=O)[C@H](C)C[C@H](C)[C@@H]2CC[C@H](/C=C/1C)ON2c1ccccc1 [Example 2, 9,27-dihydroxy-3-{2-[4-hydroxy-3-methoxycyclohexyl]-1-methylethyl}-10,21-dimethoxy-6,8,12,14,20,26-hexamethyl-37-phenyl-4,9,10,12,13,14,15,16,17,18,21,22,23,24,25,26,27,32,33,34,34a-henicosahydro-3H-23,27-epoxy-18,15-(epoxyimino)pyrido[2,1-c][1,4]oxazacyclohentriacontine-1,5,11,28,29(6H,31H)-pentone]		< 1000 nM	< 1000 nM	behavior deficit scoring (rats following pMCAO): statistically significant reduction
CO[C@H]1C[C@@H]2CC[C@@H](C)[C@@](O)(O2)C(=O)C(=O)N2CCCC[C@H]2C(=O)O[C@H]([C@H](C)C[C@@H]2CC[C@@H](O)[C@H](OC)C2)CC(=O)[C@H](C)/C=C(\C)[C@@H](O)[C@@H](OC)C(=O)[C@H](C)C[C@H](C)/C=C/C=C/C=C/1C [rapamycin]	> 1000 nM		> 1000 nM	
Rapamycin phenyltriazolinedione				EC50 [2]: < 1000 nM

The next lines start with results.

EC50 ([2]; Neuron)	EC50 [3]	Compound	EC50 [1]	other results
> 1000 nM		CO[C@H]1C[C@@H]2CC[C@@H](C)[C@@](O)(O2)C(=O)C(=O)N2CCCC[C@H]2C(=O)O[C@H]([C@H](C)C[C@@H]2CC[C@@H](OC(=O)C(C)(CO)CO)[C@H](OC)C2)CC(=O)[C@H](C)/C=C(\C)[C@@H](O)[C@@H](OC)C(=O)[C@H](C)C[C@H](C)/C=C/C=C/C=C/1C [CCI-779, reference compound]	> 1000 nM	
	< 1000 nM	CO[C@H]1C[C@@H]2CC[C@@H](C)[C@@](O)(O2)C(=O)C(=O)N2CCCC[C@H]2C(=O)O[C@H]([C@H](C)C[C@@H]2CC[C@@H](O)[C@H](OC)C2)CC(=O)[C@H](C)/C=C(\C)[C@@H](O)[C@@H](OC)C(=O)[C@H](C)C[C@H](C)C2C=CC(/C=C/1C)ON2c1c(Cl)cccc1Cl [Example 3, 37-(2,6-dichlorophenyl)-9,27-dihydroxy-3-{2-[4-hydroxy-3-methoxycyclohexyl]-1-methylethyl}-10,21-dimethoxy-6,8,12,14,20,26-hexamethyl-4,9,10,12,13,14,15,18,21,22,23,24,25,26,27,32,33,34,34a-nonadecahydro-3H-23,27-epoxy-18,15-(epoxyimino)pyrido[2,1-c][1,4]oxazacyclohentriacontine-1,5,11,28,29(6H,31H)-pentone]	< 1000 nM	EC50 (human CD4+ T cells [4]): 200 to 4900 nM; IC50 (human CD4+ T cells [5]; CD4+ T cells activated with anti-CD3/anti-CD28, re-stimulated with 1 ng/mL human IL-2, read-out: IC50, inhibition of IL-2 production): < 1000 nM; IL-2 production compared with rapamycin and CCI-779 (human CD4+ T cells [5]; CD4+ T cells, IL-2 re-stimulation): commensurate
< 1000 nM	< 1000 nM	CO[C@H]1C[C@@H]2CC[C@@H](C)[C@@](O)(O2)C(=O)C(=O)N2CCCC[C@H]2C(=O)O[C@H]([C@H](C)C[C@@H]2CC[C@@H](OC(=O)C(C)(C)Cc3ccccn3)[C@H](OC)C2)CC(=O)[C@H](C)/C=C(\C)[C@@H](O)[C@@H](OC)C(=O)[C@H](C)C[C@H](C)C2C=CC(/C=C/1C)ON2c1ccccc1 [Example 6, 9,27-dihydroxy-3-{-2-[4-hydroxy-3-methoxycyclohexyl]-1-methylethyl}-10,21-dimethoxy-6,8,12,14,20,26-hexamethyl-37-phenyl-4,9,10,12,13,14,15,18,21,22,23,24,25,26,27,32,33,34,34a-nonadecahydro-3H-23,27-epoxy-18,15-(epoxyimino)pyrido[2,1-c][1,4]oxazacyclohentriacontine-1,5,11,28,29(6H,31H)-pentone ester with-2,2-dimethyl-3-(pyridin-2-yl)-propionic acid]		
